Here are results for four compounds from US20110086759A1, “CHEMICAL COMPOUNDS” (SYNGENTA CROP PROTECTION, INC., priority 2007, published 2011).

Molecules are shown by their SMILES.

Common to all, as to assay type: in vivo
Assay [1] concerns Setaria faberi (SETFA). The assay can be described thus: Pre-emergence biological efficacy, glasshouse pot test. To be noted: 312 h, pre-emergence, rate 1,000 g/ha, evaluated after 13 days (100=total damage to plant; 0=no damage), read-out: Percentage damage caused to weed species, SETFA. In short, it runs like this:
(§1)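 Standard soil, pots, sown then sprayed at day 1 with 1000 or 250 g/ha test compound. Glasshouse: 24/16 °C, 14 h photoperiod, 65% humidity, twice-daily watering. Evaluation day 13, 0–100 damage score.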

Assay [2] has as its system Echinochloa crus-galli (ECHCG). Described as above. The conditions noted are these: 312 h, pre-emergence, rate 1,000 g/ha, evaluated after 13 days (100=total damage to plant; 0=no damage), read-out: Percentage damage caused to weed species, ECHCG. The essentials: as §1
Assay [3] has as its system Ipomea hederaceae (IPOHE). The assay is described as above. The conditions noted are these: Ipomoea hederacea, 312 h; pre-emergence, rate 1,000 g/ha, evaluated after 13 days (100=total damage to plant; 0=no damage); read-out: Percentage damage caused to weed species, IPOHE. The essentials: as §1
Assay [4] concerns Alopecurus myosuroides (ALOMY). The description is as above. To be noted: 312 h, pre-emergence, rate 1,000 g/ha, evaluated after 13 days (100=total damage to plant; 0=no damage), read-out: Percentage damage caused to weed species, ALOMY. The essentials: as §1
For assay [5], the system named is Amaranthus retoflexus (AMARE). The description is as above. To be noted: Amaranthus retroflexus, 312 h; pre-emergence, rate 1,000 g/ha, evaluated after 13 days (100=total damage to plant; 0=no damage); read-out: Percentage damage caused to weed species, AMARE. The essentials: as §1
In assay [6] the test system is Solanum nigrum (SOLNI). The assay is described as above. To be noted: 312 h, pre-emergence, rate 1,000 g/ha, evaluated after 13 days (100=total damage to plant; 0=no damage), read-out: Percentage damage caused to weed species, SOLNI. In short, it runs like this: as §1
For assay [7], the system named is Setaria faberi (SETFA). The assay can be described thus: Post-emergence biological efficacy, glasshouse pot test. The conditions noted are these: 312 h, Rate 1,000 g/ha, post-emergence spray, evaluated after 13 days (100=total damage to plant; 0=no damage to plant), read-out: Percentage damage caused to weed species, post-emergence, SETFA. The essentials:
(§2)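 Scored 13 days after spraying on a 0 (no damage) to 100 (total damage) scale. Treatment was a post-emergence spray at 1000 or 250 g/ha, from acetone/water 50:50 plus 0.5% Tween 20, onto 8-day-old plants in soil pots. Growth at 24/16° C, 14 h photoperiod, 65% humidity, watered twice daily.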

In assay [8] the test system is Echinochloa crus-galli (ECHCG). The description is as above. To be noted: 312 h, Rate 1,000 g/ha, post-emergence spray, evaluated after 13 days (100=total damage to plant; 0=no damage to plant), read-out: Percentage damage caused to weed species, post-emergence, ECHCG. In short, it runs like this:
as §2

The test system of assay [9] is Ipomea hederaceae (IPOHE). Described as above. The conditions noted are these: Ipomoea hederacea, 312 h; Rate 1,000 g/ha; post-emergence spray; evaluated after 13 days (100=total damage to plant; 0=no damage to plant); read-out: Percentage damage caused to weed species, post-emergence, IPOHE. In short, it runs like this: as §2
The test system of assay [10] is Alopecurus myosuroides (ALOMY). The assay is described as above. The conditions noted are these: 312 h, Rate 1,000 g/ha, post-emergence spray, evaluated after 13 days (100=total damage to plant; 0=no damage to plant), read-out: Percentage damage caused to weed species, post-emergence, ALOMY. In short, it runs like this: as §2
The test system of assay [11] is Amaranthus retoflexus (AMARE). Described as above. The conditions noted are these: Amaranthus retroflexus, 312 h; Rate 1,000 g/ha; post-emergence spray; evaluated after 13 days (100=total damage to plant; 0=no damage to plant); read-out: Percentage damage caused to weed species, post-emergence, AMARE. In short, it runs like this: as §2
Assay [12] relates to Solanum nigrum (SOLNI). The assay is described as above. The conditions noted are these: 312 h, Rate 1,000 g/ha, post-emergence spray, evaluated after 13 days (100=total damage to plant; 0=no damage to plant), read-out: Percentage damage caused to weed species, post-emergence, SOLNI. The essentials: as §2

As to `COC(=O)c1nc(C2CC2)nc(N(C)Cc2ccc(Cl)c(Cl)c2)c1Cl` [Compound 5-105, 5-Chloro-2-cyclopropyl-4-[N-(3,4-dichlorophenyl-methyl)-N-methyl-amino]-6-methoxy-carbonylpyrimidine], the pest or weed control at 1000 g/ha is 30% with Setaria faberi (SETFA) [1]; 10% in [2]; 60% in assay [3]; 10% in [4]; 80% in assay [5]; 60% in the assay on Solanum nigrum (SOLNI) [6]. Moreover, the pest or weed control at 1000 g/ha was 60% in the assay on Setaria faberi (SETFA) [7]; 40% in assay [8]; 80% in assay [9]; 30% in assay [10]; 100% in [11]; 80% with Solanum nigrum (SOLNI) [12].
For `COC(=O)c1nc(C2CC2)nc(N(C)Cc2cc(OC)cc(OC)c2)c1Cl` [Compound 5-113, 5-Chloro-2-cyclopropyl-4-[N-(3,5-dimethoxy-phenylmethyl)-N-methyl-amino]-6-methoxycarbonyl-pyrimidine], the pest or weed control at 1000 g/ha in the assay on Setaria faberi (SETFA) [1] is 0%; in [2], 0%; in [3], 60%; in assay [4], 0%; in assay [5] it was 70%; with Solanum nigrum (SOLNI) [6], 10%. The pest or weed control at 1000 g/ha in the assay with Setaria faberi (SETFA) [7] came out at 30%; in [8], 10%; in assay [9], 70%; in assay [10], 10%; in assay [11], 80%; in the assay on Solanum nigrum (SOLNI) [12], 70%.
As for `CCOc1ccc(CN(C)c2nc(C3CC3)nc(C(=O)OC)c2Cl)cc1OCC` [Compound 5-114, 5-Chloro-2-cyclopropyl-4-[N-(3,4-diethoxy-phenylmethyl)-N-methyl-amino]-6-methoxycarbonyl-pyrimidine], the pest or weed control at 1000 g/ha was determined as 20% with Setaria faberi (SETFA) [1]; 0% in assay [2]; 40% in [3]; 0% in assay [4]; 70% in assay [5]; 20% with Solanum nigrum (SOLNI) [6]. In addition, the pest or weed control at 1000 g/ha in the assay on Setaria faberi (SETFA) [7] turned out to be 40%; in [8], 20%; in assay [9], 70%; in assay [10], 10%; in assay [11] it was 100%; in the assay on Solanum nigrum (SOLNI) [12], 80%.
`COC(=O)c1nc(C2CC2)nc(N(C)Cc2ccco2)c1Cl` [Compound 5-125, 5-Chloro-2-cyclopropyl-4-(N-furan-2-ylmethyl-N-methyl-amino)-6-methoxycarbonyl-pyrimidine]: the pest or weed control at 1000 g/ha in the assay on Setaria faberi (SETFA) [1] is 80%; in [2], 70%; in assay [3], 100%; in assay [4], 40%; in assay [5], 100%; in the assay with Solanum nigrum (SOLNI) [6], 90%. Further, the pest or weed control at 1000 g/ha in the assay with Setaria faberi (SETFA) [7] worked out at 80%; in assay [8] it was 60%; in assay [9], 100%; in [10] it was 50%; in assay [11] it was 100%; in the assay with Solanum nigrum (SOLNI) [12], 90%.
